We go through 15 molecules from patent publication US20240025919A1, “AZA-TETRACYCLIC OXAZEPINE COMPOUNDS AND USES THEREOF” (Genentech, Inc., priority 2022, published 2024).

Molecules are shown by their SMILES. pIC50: −log10 of the molar value.

The target in one test is KRAS G12D (Homo sapiens (Human), UniProt P01116, G12D). Description: KRAS G12D LoEnz Biochemical Assay, BODIPY-GDP Exchange TR-FRET (SOS1-mediated nucleotide exchange). Particulars: read-out: KRas (G12D) GDP HTRF IC50.
The target of the next test is KRAS WT (Homo sapiens (Human), UniProt P01116). Description: KRAS WT Biochemical Assay, BODIPY-GDP Exchange TR-FRET (Example 502; 0.06 nM KRAS WT, 15 nM GDP, 300 nM SOS1, 120-minute incubation). Particulars: read-out: KRas HTRF IC50. In outline:
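IC50 from a 4-parameter Hill fit of percent inhibition, itself the TR-FRET 520/490 nm ratio scaled between DMSO and a fully inhibiting control. Reaction: 300 nM SOS1 and 300 nM BODIPY-GDP added to preformed 0.06 nM KRAS WT/15 nM GDP/Tb-streptavidin complex; 120 min incubation; pH 7.5 HEPES, MgCl2, DTT.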

Chain of KRAS G12D (P01116-2 other isoform, or with tags, fused parts or gaps G12D): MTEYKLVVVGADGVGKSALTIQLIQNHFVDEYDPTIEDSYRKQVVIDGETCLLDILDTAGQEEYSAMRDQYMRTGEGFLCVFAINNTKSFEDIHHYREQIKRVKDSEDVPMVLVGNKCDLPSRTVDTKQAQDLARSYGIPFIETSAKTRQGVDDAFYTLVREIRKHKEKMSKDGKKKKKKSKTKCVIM
Chain of KRAS WT (P01116-2 other isoform, or with tags, fused parts or gaps): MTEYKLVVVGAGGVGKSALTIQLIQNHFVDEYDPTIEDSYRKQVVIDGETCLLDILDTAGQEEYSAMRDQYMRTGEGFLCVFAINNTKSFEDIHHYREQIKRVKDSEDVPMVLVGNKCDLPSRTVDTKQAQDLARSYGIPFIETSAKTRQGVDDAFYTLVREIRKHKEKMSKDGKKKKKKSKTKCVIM

As for `Cc1c(F)c(N)c(F)c(-c2nc3c4c(nc(OC[C@@]56CCCN5C[C@H](F)C6)nc4c2F)N2C[C@H]4CC[C@H](N4)[C@H]2[C@H](C)O3)c1C(F)(F)F` [Compound 91, 2,6-Difluoro-3-((5S,5aS,6S,9R)-1-fluoro-12-(((2R,7aS)-2-fluorotetrahydro-1H-pyrrolizin-7a(5H)-yl)methoxy)-5-methyl-5a,6,7,8,9,10-hexahydro-5H-4-oxa-3,10a,11,13,14-pentaaza-6,9-methanonaphtho[1,8-ab]heptalen-2-yl)-5-methyl-4-(trifluoromethyl)aniline], the pIC50 at KRAS G12D is 9.74; at KRAS WT, 8.24.
On to `Cc1c(F)c(N)c(F)c(-c2nc3c4c(nc(OC[C@@H]5CC[C@H]6COCCN65)nc4c2F)N2C[C@H]4CC[C@H](N4)[C@H]2[C@H](C)O3)c1C(F)(F)F` [Compound 96, 2,6-Difluoro-3-((5S,5aS,6S,9R)-1-fluoro-12-(((6S,8aS)-hexahydro-1H-pyrrolo[2,1-c][1,4]oxazin-6-yl)methoxy)-5-methyl-5a,6,7,8,9,10-hexahydro-5H-4-oxa-3,10a,11,13,14-pentaaza-6,9-methanonaphtho[1,8-ab]heptalen-2-yl)-5-methyl-4-(trifluoromethyl)aniline], for which the values for the pIC50 on KRAS G12D and on KRAS WT were 9.36 and 7.12, respectively.
As for `Cc1cc(N)c(F)c(-c2nc3c4c(nc(OC[C@@H]5CC[C@H]6COCCN65)nc4c2F)N2C[C@H]4CC[C@H](N4)[C@H]2[C@H](C)O3)c1C(F)(F)F` [Compound 97, 2-Fluoro-3-((5S,5aS,6S,9R)-1-fluoro-12-(((6S,8aS)-hexahydro-1H-pyrrolo[2,1-c][1,4]oxazin-6-yl)methoxy)-5-methyl-5a,6,7,8,9,10-hexahydro-5H-4-oxa-3,10a,11,13,14-pentaaza-6,9-methanonaphtho[1,8-ab]heptalen-2-yl)-5-methyl-4-(trifluoromethyl)aniline], the figures for the pIC50 on KRAS G12D and at KRAS WT were 9.43 and 7.36, respectively.
Consider `Cc1cc(N)c(F)c(-c2nc3c4c(nc(OC[C@@H]5CC[C@H]6COCCN65)nc4c2F)N2C[C@H]4CC[C@H](N4)[C@H]2[C@H](C)O3)c1C1CC1` [Compound 98, 4-Cyclopropyl-2-fluoro-3-((5S,5aS,6S,9R)-1-fluoro-12-(((6S,8aS)-hexahydro-1H-pyrrolo[2,1-c][1,4]oxazin-6-yl)methoxy)-5-methyl-5a,6,7,8,9,10-hexahydro-5H-4-oxa-3,10a,11,13,14-pentaaza-6,9-methanonaphtho[1,8-ab]heptalen-2-yl)-5-methylaniline], for which the figures for the pIC50 at KRAS G12D and at KRAS WT were 8.37 and 6.26, respectively.
Taken in the same sequence, the figures for `Cc1cc(N)c(F)c(-c2nc3c4c(nc(OC[C@@H]5CC[C@H]6COCCN65)nc4c2F)N2C[C@H]4CC[C@H](N4)[C@H]2[C@H](C)O3)c1C=C(F)F` [Compound 99, 4-(2,2-Difluorovinyl)-2-fluoro-3-((5S,5aS,6S,9R)-1-fluoro-12-(((6S,8aS)-hexahydro-1H-pyrrolo[2,1-c][1,4]oxazin-6-yl)methoxy)-5-methyl-5a,6,7,8,9,10-hexahydro-5H-4-oxa-3,10a,11,13,14-pentaaza-6,9-methanonaphtho[1,8-ab]heptalen-2-yl)-5-methylaniline] were 8.68 and 6.30.
For the molecule `Cc1cc(N)c(F)c(-c2nc3c4c(nc(OC[C@@H]5CC[C@H]6COCCN65)nc4c2F)N2C[C@H]4CC[C@H](N4)[C@H]2[C@H](C)O3)c1C(F)(F)C(F)(F)F` [Compound 100, 2-Fluoro-3-((5S,5aS,6S,9R)-1-fluoro-12-(((6S,8aS)-hexahydro-1H-pyrrolo[2,1-c][1,4]oxazin-6-yl)methoxy)-5-methyl-5a,6,7,8,9,10-hexahydro-5H-4-oxa-3,10a,11,13,14-pentaaza-6,9-methanonaphtho[1,8-ab]heptalen-2-yl)-5-methyl-4-(perfluoroethyl)aniline], the pIC50 is 8.83 on KRAS G12D and 6.31 on KRAS WT.
Turning to `Cc1cc(N)c(F)c(-c2nc3c4c(nc(OC[C@@H]5CC[C@H]6COCCN65)nc4c2F)N2C[C@H]4CC[C@H](N4)[C@H]2[C@H](C)O3)c1Cl` [Compound 101, 4-Chloro-2-fluoro-3-((5S,5aS,6S,9R)-1-fluoro-12-(((6S,8aS)-hexahydro-1H-pyrrolo[2,1-c][1,4]oxazin-6-yl)methoxy)-5-methyl-5a,6,7,8,9,10-hexahydro-5H-4-oxa-3,10a,11,13,14-pentaaza-6,9-methanonaphtho[1,8-ab]heptalen-2-yl)-5-methylaniline], the values for the negative-log IC50 (pIC50) on KRAS G12D and on KRAS WT were 8.50 and 6.04, respectively.
On to `Cc1cc(N)c(Cl)c(-c2nc3c4c(nc(OC[C@@H]5CC[C@H]6COCCN65)nc4c2F)N2C[C@H]4CC[C@H](N4)[C@H]2[C@H](C)O3)c1C(F)(F)F` [Compound 103, 2-Chloro-3-((5S,5aS,6S,9R)-1-fluoro-12-(((6S,8aS)-hexahydro-1H-pyrrolo[2,1-c][1,4]oxazin-6-yl)methoxy)-5-methyl-5a,6,7,8,9,10-hexahydro-5H-4-oxa-3,10a,11,13,14-pentaaza-6,9-methanonaphtho[1,8-ab]heptalen-2-yl)-5-methyl-4-(trifluoromethyl)aniline], for which the pIC50 at KRAS G12D is 9.07; at KRAS WT, 6.65.
Take `C[C@@H]1Oc2nc(-c3cc(N)c(F)c(Cl)c3C(F)(F)F)c(F)c3nc(OC[C@@]45CCCN4C[C@H](F)C5)nc(c23)N2C[C@H]3CC[C@H](N3)[C@@H]12` [Compound 104, 3-Chloro-2-fluoro-5-((5S,5aS,6S,9R)-1-fluoro-12-(((2R,7aS)-2-fluorotetrahydro-1H-pyrrolizin-7a(5H)-yl)methoxy)-5-methyl-5a,6,7,8,9,10-hexahydro-5H-4-oxa-3,10a,11,13,14-pentaaza-6,9-methanonaphtho[1,8-ab]heptalen-2-yl)-4-(trifluoromethyl)aniline]: the values for the pIC50 on KRAS G12D and on KRAS WT were 10.30 and 9.15, respectively.
For the molecule `C[C@@H]1Oc2nc(-c3[nH]c(=O)cc4ccccc34)c(F)c3nc(OC[C@@]45CCCN4C[C@H](F)C5)nc(c23)N2C[C@H]3CC[C@H](N3)[C@@H]12` [Compound 105, 1-((5S,5aS,6S,9R)-1-Fluoro-12-(((2R,7aS)-2-fluorotetrahydro-1H-pyrrolizin-7a(5H)-yl)methoxy)-5-methyl-5a,6,7,8,9,10-hexahydro-5H-4-oxa-3,10a,11,13,14-pentaaza-6,9-methanonaphtho[1,8-ab]heptalen-2-yl)isoquinolin-3(2H)-one], the pIC50 was 6.85 on KRAS G12D and 5.01 at KRAS WT.
Turning to `C[C@@H]1Oc2nc(-c3c(C#N)c(N)c(F)c(F)c3C(F)(F)F)c(F)c3nc(OC[C@@]45CCCN4C[C@H](F)C5)nc(c23)N2C[C@H]3CC[C@H](N3)[C@@H]12` [Compound 107, 2-Amino-3,4-difluoro-6-((5S,5aS,6S,9R)-1-fluoro-12-(((2R,7aS)-2-fluorotetrahydro-1H-pyrrolizin-7a(5H)-yl)methoxy)-5-methyl-5a,6,7,8,9,10-hexahydro-5H-4-oxa-3,10a,11,13,14-pentaaza-6,9-methanonaphtho[1,8-ab]heptalen-2-yl)-5-(trifluoromethyl)benzonitrile], the negative-log IC50 (pIC50) on KRAS G12D is 8.86; at KRAS WT, 6.78.
As for `Cc1cc(N)c(F)c(-c2nc3c4c(nc(OC[C@@]56CCCN5C[C@H](F)C6)nc4c2F)N2C[C@H]4CC[C@H](N4)[C@H]2[C@H](C)O3)c1I` [Compound 108, 2-Fluoro-3-((5S,5aS,6S,9R)-1-fluoro-12-(((2R,7aS)-2-fluorotetrahydro-1H-pyrrolizin-7a(5H)-yl)methoxy)-5-methyl-5a,6,7,8,9,10-hexahydro-5H-4-oxa-3,10a,11,13,14-pentaaza-6,9-methanonaphtho[1,8-ab]heptalen-2-yl)-4-iodo-5-methylaniline], the pIC50 was 9.49 at KRAS G12D and 7.42 on KRAS WT.
`C#Cc1c(F)ccc2cc(N)cc(-c3nc4c5c(nc(OC[C@]67CCN6CC(F)(F)C7)nc5c3F)N3C[C@H]5CC[C@H](N5)[C@H]3[C@H](C)O4)c12` [Compound 110, 4-((5S,5aS,6S,9R)-12-(((R)-3,3-Difluoro-1-azabicyclo[3.2.0]heptan-5-yl)methoxy)-1-fluoro-5-methyl-5a,6,7,8,9,10-hexahydro-5H-4-oxa-3,10a,11,13,14-pentaaza-6,9-methanonaphtho[1,8-ab]heptalen-2-yl)-5-ethynyl-6-fluoronaphthalen-2-amine]: the pIC50 at KRAS G12D is 9.82; on KRAS WT it was 8.11.
For `Cc1c(F)c(N)cc(-c2nc3c4c(nc(OC[C@@H]5CC[C@H]6COCCN65)nc4c2F)N2C[C@H]4CC[C@H](N4)[C@H]2[C@H](C)O3)c1Cl` [Compound 111, 4-Chloro-2-fluoro-5-((5S,5aS,6S,9R)-1-fluoro-12-(((6S,8aS)-hexahydro-1H-pyrrolo[2,1-c][1,4]oxazin-6-yl)methoxy)-5-methyl-5a,6,7,8,9,10-hexahydro-5H-4-oxa-3,10a,11,13,14-pentaaza-6,9-methanonaphtho[1,8-ab]heptalen-2-yl)-3-methylaniline], the pIC50 on KRAS G12D is 9.51; on KRAS WT it was 6.97.
On to `Cc1nc(N)cc(-c2nc3c4c(nc(OC[C@@H]5CC[C@H]6COCCN65)nc4c2F)N2C[C@H]4CC[C@H](N4)[C@H]2[C@H](C)O3)c1C(F)(F)F` [Compound 112, 4-((5S,5aS,6S,9R)-1-fluoro-12-(((6S,8aS)-hexahydro-1H-pyrrolo[2,1-c][1,4]oxazin-6-yl)methoxy)-5-methyl-5a,6,7,8,9,10-hexahydro-5H-4-oxa-3,10a,11,13,14-pentaaza-6,9-methanonaphtho[1,8-ab]heptalen-2-yl)-6-methyl-5-(trifluoromethyl)pyridin-2-amine], for which the figures for the pIC50 on KRAS G12D and on KRAS WT were 9.32 and 7.20, respectively.
